Results on 14 compounds are retold here after patent publication US6977260B2, “Piperidinyl prostaglandin E analogs” (Allergan, Inc., priority 2004, dated 2005).

Holding throughout (type): cell-based
What all share (settings): HEK-293-EBNA stable transfectants

The target of one test is T1, hEP4 (Homo sapiens, UniProt P35408).
T1 construct: expressed in transfected cells; host or cells: HEK-293-EBNA
Briefly: Functional data, human recombinant EP4 receptor stable transfectants. How it is done: (§1) Human Recombinant EP1, EP2, EP3, EP4, FP, TP, IP and DP Receptors: Stable Transfectants.
(§2) Plasmids encoding the human EP1, EP2, EP3, EP4, FP, TP, IP and DP receptors were prepared by cloning the respective coding sequences into the eukaryotic expression vector pCEP4 (Invitrogen). The pCEP4 vector contains an Epstein Barr virus (EBV) origin of replication, which permits episomal replication in primate cell lines expressing EBV nuclear antigen (EBNA-1). It also contains a hygromycin resistance gene that is used for eukaryotic selection. The cells employed for stable transfection were human embryonic kidney cells (HEK-293) that were transfected with and express the EBNA-1 protein. These HEK-293-EBNA cells (Invitrogen) were grown in medium containing Geneticin (G418) to maintain expression of the EBNA-1 protein. HEK-293 cells were grown in DMEM with 10% fetal bovine serum (FBS), 250 μg ml^−1 G418 (Life Technologies) and 200 μg ml^−1 gentamicin or penicillin/streptomycin.
(§3) For transfection, the cells were grown to 50-60% confluency on 10 cm plates. The plasmid pCEP4 incorporating cDNA inserts for the respective human prostanoid receptor (20 μg) was added to 500 μl of 250 mM CaCl2. HEPES buffered saline×2 (2×HBS, 280 mM NaCl, 20 mM HEPES acid, 1.5 mM Na2 HPO4, pH 7.05-7.12) was then added dropwise to a total of 500 μl, with continuous-vortexing at room temperature. After 30 min, 9 ml DMEM were added to the mixture. The DNA/DMEM/calcium phosphate mixture was then added to the cells, which had been previously rinsed with 10 ml PBS. The cells were then incubated for 5 hr at 37° C. in humidified 95% air/5% CO2. The calcium phosphate solution was then removed and the cells were treated with 10% glycerol in DMEM for 2 min. The glycerol solution was then replaced by DMEM with 10% FBS. The cells were incubated overnight and the medium was replaced by DMEM/10% FBS containing 250 μg ml^−1 G418 and penicillin/streptomycin. The following day hygromycin B was added to a final concentration of 200 μg ml^−1.
(§4) Ten days after transfection, hygromycin B resistant clones were individually selected and transferred to a separate well on a 24 well plate. At confluence each clone was transferred to one well of a 6 well plate, and then expanded in a 10 cm dish. Cells were maintained under continuous hygromycin selection until use.

Another test concerns the target T2, hTP (Homo sapiens, UniProt P21731).
T2 construct: expressed in transfected cells; host or cells: HEK-293-EBNA
T2 sequence (P21731 1-343): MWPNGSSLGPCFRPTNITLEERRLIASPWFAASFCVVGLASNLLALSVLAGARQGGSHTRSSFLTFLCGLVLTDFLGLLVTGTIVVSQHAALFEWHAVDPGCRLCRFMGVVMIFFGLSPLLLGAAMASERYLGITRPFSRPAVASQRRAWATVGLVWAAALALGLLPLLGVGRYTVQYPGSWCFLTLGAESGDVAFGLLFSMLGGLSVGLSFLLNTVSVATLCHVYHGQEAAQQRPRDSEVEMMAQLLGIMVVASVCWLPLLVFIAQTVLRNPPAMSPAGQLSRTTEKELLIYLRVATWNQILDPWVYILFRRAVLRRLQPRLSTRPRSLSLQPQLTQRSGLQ
The test is described as follows: Functional data, human recombinant TP receptor stable transfectants. As to the method: as §1, §2, §3, §4

For another test, the target named is T3, hEP2 (Homo sapiens, UniProt P43116).
T3 construct: expressed in transfected cells; host or cells: HEK-293-EBNA
T3 sequence (P43116 whole entry): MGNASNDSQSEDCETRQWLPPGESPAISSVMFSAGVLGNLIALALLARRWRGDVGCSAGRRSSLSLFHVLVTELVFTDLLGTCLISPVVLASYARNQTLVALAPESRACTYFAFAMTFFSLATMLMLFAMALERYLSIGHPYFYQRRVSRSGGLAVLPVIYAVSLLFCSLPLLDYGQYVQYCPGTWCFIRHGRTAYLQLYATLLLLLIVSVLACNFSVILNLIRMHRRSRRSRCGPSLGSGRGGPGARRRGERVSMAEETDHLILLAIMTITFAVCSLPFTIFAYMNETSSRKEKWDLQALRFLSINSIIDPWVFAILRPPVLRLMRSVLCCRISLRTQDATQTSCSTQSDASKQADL
The test is described as follows: Functional data, human recombinant EP2 receptor stable transfectants. As to the method: as §1, §2
(§5) For transfection, the cells were grown to 50-60% confluency on 10 cm plates. The plasmid pCEP4 incorporating cDNA inserts for the respective human prostanoid receptor (20 μg) was added to 500 μl of 250 mM CaCl2. HEPES buffered saline×2 (2×HBS, 280 mM NaCl, 20 mM HEPES acid, 1.5 mM Na2 HPO4, pH 7.05-7.12) was then added dropwise to a total of 500 μl, with continuous-vortexing at room temperature. […]

The next test addresses T4, hEP1 (Homo sapiens, UniProt P34995).
T4 construct: expressed in transfected cells; host or cells: HEK-293-EBNA
T4 sequence (P34995 1-402): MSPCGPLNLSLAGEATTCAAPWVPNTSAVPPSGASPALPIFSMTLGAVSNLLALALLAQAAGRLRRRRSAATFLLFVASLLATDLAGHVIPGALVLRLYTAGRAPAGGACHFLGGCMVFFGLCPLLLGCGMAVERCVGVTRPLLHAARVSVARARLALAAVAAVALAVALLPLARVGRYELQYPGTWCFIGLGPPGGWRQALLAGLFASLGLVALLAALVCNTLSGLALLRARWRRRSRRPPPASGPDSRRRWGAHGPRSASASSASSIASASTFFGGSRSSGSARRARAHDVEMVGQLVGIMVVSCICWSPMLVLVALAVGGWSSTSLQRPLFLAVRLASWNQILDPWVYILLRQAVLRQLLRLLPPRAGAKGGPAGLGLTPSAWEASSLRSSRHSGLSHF
Briefly: Functional data, human recombinant EP1 receptor stable transfectants. How it is done: as §1, §2, §5

Another test concerns the target T5, hEP3A (Homo sapiens, UniProt P43115).
T5 construct: expressed in transfected cells; host or cells: HEK-293-EBNA
T5 sequence (P43115 1-390): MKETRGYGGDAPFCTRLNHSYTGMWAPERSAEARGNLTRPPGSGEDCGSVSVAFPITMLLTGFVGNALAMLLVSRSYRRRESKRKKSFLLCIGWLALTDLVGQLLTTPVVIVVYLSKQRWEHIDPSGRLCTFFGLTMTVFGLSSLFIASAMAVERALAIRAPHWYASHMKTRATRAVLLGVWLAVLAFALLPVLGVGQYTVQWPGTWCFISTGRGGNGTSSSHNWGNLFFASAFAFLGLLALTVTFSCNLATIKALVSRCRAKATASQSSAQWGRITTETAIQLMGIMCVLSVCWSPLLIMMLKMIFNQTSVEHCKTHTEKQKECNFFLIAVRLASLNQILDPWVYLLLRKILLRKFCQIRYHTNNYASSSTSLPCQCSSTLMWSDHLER
Briefly: Functional data, human recombinant EP3 receptor stable transfectants. How it is done:
as §1, §2, §5

The structures appear in SMILES notation. Bounds are passed on as bounds.

T1 sequence (P35408 whole entry): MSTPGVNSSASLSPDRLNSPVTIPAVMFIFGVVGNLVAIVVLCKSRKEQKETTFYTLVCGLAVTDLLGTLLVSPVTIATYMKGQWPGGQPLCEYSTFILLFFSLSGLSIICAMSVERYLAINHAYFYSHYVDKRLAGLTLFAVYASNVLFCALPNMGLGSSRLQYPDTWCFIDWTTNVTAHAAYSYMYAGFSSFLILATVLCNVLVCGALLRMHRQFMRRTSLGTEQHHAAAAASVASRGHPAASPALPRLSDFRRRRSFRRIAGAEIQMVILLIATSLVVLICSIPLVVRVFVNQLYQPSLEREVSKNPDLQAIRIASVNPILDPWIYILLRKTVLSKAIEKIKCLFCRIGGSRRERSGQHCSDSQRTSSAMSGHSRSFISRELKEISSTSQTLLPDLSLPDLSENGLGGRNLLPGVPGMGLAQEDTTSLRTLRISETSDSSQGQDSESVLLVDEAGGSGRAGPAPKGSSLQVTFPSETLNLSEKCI

The EC50 is the concentration at which the effect is half-maximal. For `O=C(O)COCCCCN1C(=O)CCC[C@@H]1CCC(=O)Cc1ccccc1` [Example 10, {4-[(R)-2-Oxo-6-(3-oxo-4-phenyl-butyl)-piperidin-1-yl]-butoxy}-acetic acid], the EC50 on hEP4 was 1970 nM; on hTP, greater than 10000 nM. Turning to `O=C(O)COC/C=C\CN1C(=O)CCC[C@@H]1CCC(=O)Cc1ccccc1` [Example 14, {(Z)-4[(R)-2-Oxo-6-(3-oxo-4-phenyl-butyl)-piperidin-1-yl]-but-2-enyloxy}-acetic acid], the concentration giving a half-maximal response (EC50) on hEP4 and on hTP was greater than 10000 nM in each case.

As to `O=C(O)COC/C=C\CN1C(=O)CCC[C@@H]1/C=C/C(=O)Cc1ccccc1` [Example 8, {(Z)-4-[(R)-2-Oxo-6-((E)-3-oxo-4-phenyl-but-1-enyl)-piperidin-1-yl]-but-2-enyloxy}-acetic acid], the EC50 at hEP4 was 2560 nM; at hTP it was greater than 10000 nM.

On to `O=C(O)COCCCCN1C(=O)CCC[C@@H]1/C=C/C(O)Cc1cccc(Cl)c1` (stereo partly drawn) [Example 17, (4-{(R)-2-[(E)4(3-Chlorophenyl)-3-hydroxy-but-1-enyl]-6-oxo-piperidin-1-yl}-butoxy)-acetic acid], for which the EC50 on hEP2 and on hEP1 was greater than 10000 nM each time. Turning to `COC(=O)COCCCCN1C(=O)CCC[C@@H]1CCC(O)Cc1ccccc1` (stereo partly drawn) [Example 5, {4-[(R)-2-(3-Hydroxy-4-phenyl-butyl)-6-oxo-piperidin-1-yl]-butoxy}-acetic acid methyl ester], the EC50 at hEP4 and on hEP3A was greater than 10000 nM throughout. Regarding `O=C(O)COC/C=C\CN1C(=O)CCC[C@@H]1/C=C/C(O)Cc1ccccc1` (stereo partly drawn) [Example 12, {(Z)-4-[(R)-2-((E)-3-Hydroxy-4-phenyl-but-1-enyl)-6-oxo-piperidin-1-yl]-but-2-enyloxy}-acetic acid], the EC50 on hEP4 was greater than 10000 nM. For the compound `O=C(O)COCCCCN1C(=O)CCC[C@@H]1CCC(O)Cc1ccccc1` (stereo partly drawn) [Example 6, {4-[(R)-2-(3-Hydroxy-4-phenyl-butyl)-6-oxo-piperidin-1-yl]-butoxy}-acetic acid], the EC50 at hEP4 is greater than 10000 nM. On the same count and under the same terms, in the case of `COC(=O)COCCCCN1C(=O)CCC[C@@H]1CCC(=O)Cc1ccccc1` [Example 9, {4-[(R)-2-Oxo-6-(3-oxo-4-phenyl-butyl)-piperidin-1-yl]-butoxy}-acetic acid methyl ester] it was 7540 nM. In the case of `COC(=O)COCCCCN1C(=O)CCC[C@@H]1/C=C/C(=O)Cc1ccccc1` [Example 1, {4-[(R)-2-Oxo-6-((E)-3-oxophenyl-but-1-enyl)-piperidin-1-yl]-butoxy}-Acetic acid methyl ester], the EC50 at hTP is greater than 10000 nM.

Turning to `O=C(O)COCCCCN1C(=O)CCC[C@@H]1/C=C/C(O)Cc1ccccc1` (stereo partly drawn) [Example 4, {4-[(R)-2-((E)-3-Hydroxy-4-phenyl-but-1-enyl)-6-oxo-piperidin-1-yl]-butoxy}-acetic acid], the EC50 on hEP4 was 145 nM. With `O=C(O)COCCCCN1C(=O)CCC[C@@H]1/C=C/C(=O)Cc1ccccc1` [Example 2, {4-[(R)-2-Oxo-6-((E)-3-oxo-4-phenyl-but-1-enyl)-piperidin-1-yl]-butoxy}-acetic acid], the EC50 on hEP4 is 300 nM; at hEP3A, greater than 10000 nM; on hTP, 2260 nM. For `NC(=O)COCCCCN1C(=O)CCC[C@@H]1/C=C/C(O)Cc1cccc(Cl)c1` (stereo partly drawn) [Example 18, 2-(4-{(R)-2-[(E)-4-(3-Chlorophenyl)-3-hydroxy-but-1 enyl]-6-oxo-piperidin-1-yl}-butoxy)-acetamide], the concentration giving a half-maximal response (EC50) on hTP is greater than 10000 nM. Regarding `COC(=O)COCCCCN1C(=O)CCC[C@@H]1/C=C/C(O)Cc1ccccc1` (stereo partly drawn) [Example 3, {4-[(R)-2-((E)-3-Hydroxy-4-phenyl-but-1-enyl)-6-oxo-piperidin-1-yl]-butoxy}-acetic acid methyl ester], on hEP4, the EC50 worked out at 1100 nM. The same measure, in the same setting: in the case of `O=C(O)COC/C=C\CN1C(=O)CCC[C@@H]1CCC(O)Cc1ccccc1` (stereo partly drawn) [Example 16, {(Z)-4-[(R)-2-(3-Hydroxy-4-phenyl-butyl)-6-oxo-piperidin-1-yl]-but-2-enyloxy}-acetic acid] it was greater than 10000 nM.
